Key:
Experiment in all cases: KINOMEscan
Format in all cases: binding
Conditions in all cases: 1.0 µM
CDKL2 = biological target: T1, CDKL2 (Homo sapiens, UniProt Q92772)
T1 construct: purchased Eurofins/DiscoverX KINOMEscan scanMAX
Protocol: (§1) Kinase retention to the immobilized ligand is then measured using quantitative real-time PCR for each kinase-specific DNA barcode.

PLK1 = biological target: T2, PLK1 (Homo sapiens, UniProt P53350)
T2 construct: purchased Eurofins/DiscoverX KINOMEscan scanMAX
Protocol: as §1

MARK4 = biological target: T3, MARK4 (Homo sapiens, UniProt Q96L34)
T3 construct: purchased Eurofins/DiscoverX KINOMEscan scanMAX
Protocol: as §1

CAMK2G = biological target: T4, CAMK2G (Homo sapiens, UniProt Q13555)
T4 construct: purchased Eurofins/DiscoverX KINOMEscan scanMAX
Protocol: as §1

CAMK1D = biological target: T5, CAMK1D (Homo sapiens, UniProt Q8IU85)
T5 construct: purchased Eurofins/DiscoverX KINOMEscan scanMAX
Protocol: as §1

PHKG2 = biological target: T6, PHKG2 (Homo sapiens, UniProt P15735)
T6 construct: purchased Eurofins/DiscoverX KINOMEscan scanMAX
Protocol: as §1

ACVRL1 = biological target: T7, ACVRL1 (Homo sapiens, UniProt P37023)
T7 construct: purchased Eurofins/DiscoverX KINOMEscan scanMAX
Protocol: as §1

CDK4-cyclinD3 = biological target: T8, CDK4-cyclinD3 (Homo sapiens, UniProt P11802)
T8 construct: purchased Eurofins/DiscoverX KINOMEscan scanMAX
T8 sequence (P11802 whole entry): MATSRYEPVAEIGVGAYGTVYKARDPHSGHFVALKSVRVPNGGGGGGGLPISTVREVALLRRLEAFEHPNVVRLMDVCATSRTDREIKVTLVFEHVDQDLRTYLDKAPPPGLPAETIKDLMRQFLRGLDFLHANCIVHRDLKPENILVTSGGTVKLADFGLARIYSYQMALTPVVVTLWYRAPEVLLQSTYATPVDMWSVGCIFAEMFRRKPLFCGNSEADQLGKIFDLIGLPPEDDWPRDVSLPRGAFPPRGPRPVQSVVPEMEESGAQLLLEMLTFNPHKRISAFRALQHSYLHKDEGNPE
T8 sequence (P30281 whole entry partner): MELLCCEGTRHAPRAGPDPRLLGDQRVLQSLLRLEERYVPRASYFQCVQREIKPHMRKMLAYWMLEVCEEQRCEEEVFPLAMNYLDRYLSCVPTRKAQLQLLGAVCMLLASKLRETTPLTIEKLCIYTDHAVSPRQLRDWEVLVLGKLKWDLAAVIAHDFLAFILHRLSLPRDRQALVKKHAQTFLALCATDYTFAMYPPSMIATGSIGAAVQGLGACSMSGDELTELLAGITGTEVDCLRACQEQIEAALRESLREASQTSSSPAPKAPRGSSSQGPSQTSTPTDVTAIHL
Protocol: as §1

FLT1 = biological target: T9, FLT1 (Homo sapiens, UniProt P17948)
T9 construct: purchased Eurofins/DiscoverX KINOMEscan scanMAX
Protocol: as §1

NIM1 = biological target: T10, NIM1 (Homo sapiens, UniProt Q8IY84)
T10 construct: purchased Eurofins/DiscoverX KINOMEscan scanMAX
T10 sequence (Q8IY84 whole entry): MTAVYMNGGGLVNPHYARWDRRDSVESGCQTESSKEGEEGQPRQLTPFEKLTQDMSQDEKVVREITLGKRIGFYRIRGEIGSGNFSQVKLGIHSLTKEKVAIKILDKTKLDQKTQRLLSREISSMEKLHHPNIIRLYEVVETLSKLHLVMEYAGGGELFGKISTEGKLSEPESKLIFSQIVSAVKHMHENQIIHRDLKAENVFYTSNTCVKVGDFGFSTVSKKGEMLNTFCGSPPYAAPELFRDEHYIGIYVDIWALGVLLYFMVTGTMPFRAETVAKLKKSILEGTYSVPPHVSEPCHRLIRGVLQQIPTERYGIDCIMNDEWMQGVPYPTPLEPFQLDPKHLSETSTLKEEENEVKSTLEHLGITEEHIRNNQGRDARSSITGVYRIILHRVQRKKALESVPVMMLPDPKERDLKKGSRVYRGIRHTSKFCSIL
Protocol: as §1

[1] = biological target: T11, ABL1(F317L)-nonphosphorylated (Homo sapiens, UniProt P00519, F317L)
T11 construct: purchased Eurofins/DiscoverX KINOMEscan scanMAX
Protocol: as §1

p38-gamma = biological target: T12, p38-gamma (Homo sapiens, UniProt P53778)
T12 construct: purchased Eurofins/DiscoverX KINOMEscan scanMAX
T12 sequence (P53778 whole entry): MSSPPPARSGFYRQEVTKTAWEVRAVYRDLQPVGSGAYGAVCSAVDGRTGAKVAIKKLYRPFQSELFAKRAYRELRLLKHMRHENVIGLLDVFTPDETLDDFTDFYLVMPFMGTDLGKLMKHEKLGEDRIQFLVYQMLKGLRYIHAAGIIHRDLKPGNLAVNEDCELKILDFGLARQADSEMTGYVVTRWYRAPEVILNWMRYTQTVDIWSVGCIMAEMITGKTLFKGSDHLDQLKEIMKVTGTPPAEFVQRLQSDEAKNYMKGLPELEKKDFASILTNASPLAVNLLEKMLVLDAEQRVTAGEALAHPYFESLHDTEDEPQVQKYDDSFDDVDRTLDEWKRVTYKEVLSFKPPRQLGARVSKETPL
Protocol: as §1

LIMK1 = biological target: T13, LIMK1 (Homo sapiens, UniProt P53667)
T13 construct: purchased Eurofins/DiscoverX KINOMEscan scanMAX
Protocol: as §1

EPHA5 = biological target: T14, EPHA5 (Homo sapiens, UniProt P54756)
T14 construct: purchased Eurofins/DiscoverX KINOMEscan scanMAX
Protocol: as §1

FLT3-autoinhibited = biological target: T15, FLT3-autoinhibited (Homo sapiens, UniProt P36888)
T15 construct: purchased Eurofins/DiscoverX KINOMEscan scanMAX
T15 sequence (P36888 27-993): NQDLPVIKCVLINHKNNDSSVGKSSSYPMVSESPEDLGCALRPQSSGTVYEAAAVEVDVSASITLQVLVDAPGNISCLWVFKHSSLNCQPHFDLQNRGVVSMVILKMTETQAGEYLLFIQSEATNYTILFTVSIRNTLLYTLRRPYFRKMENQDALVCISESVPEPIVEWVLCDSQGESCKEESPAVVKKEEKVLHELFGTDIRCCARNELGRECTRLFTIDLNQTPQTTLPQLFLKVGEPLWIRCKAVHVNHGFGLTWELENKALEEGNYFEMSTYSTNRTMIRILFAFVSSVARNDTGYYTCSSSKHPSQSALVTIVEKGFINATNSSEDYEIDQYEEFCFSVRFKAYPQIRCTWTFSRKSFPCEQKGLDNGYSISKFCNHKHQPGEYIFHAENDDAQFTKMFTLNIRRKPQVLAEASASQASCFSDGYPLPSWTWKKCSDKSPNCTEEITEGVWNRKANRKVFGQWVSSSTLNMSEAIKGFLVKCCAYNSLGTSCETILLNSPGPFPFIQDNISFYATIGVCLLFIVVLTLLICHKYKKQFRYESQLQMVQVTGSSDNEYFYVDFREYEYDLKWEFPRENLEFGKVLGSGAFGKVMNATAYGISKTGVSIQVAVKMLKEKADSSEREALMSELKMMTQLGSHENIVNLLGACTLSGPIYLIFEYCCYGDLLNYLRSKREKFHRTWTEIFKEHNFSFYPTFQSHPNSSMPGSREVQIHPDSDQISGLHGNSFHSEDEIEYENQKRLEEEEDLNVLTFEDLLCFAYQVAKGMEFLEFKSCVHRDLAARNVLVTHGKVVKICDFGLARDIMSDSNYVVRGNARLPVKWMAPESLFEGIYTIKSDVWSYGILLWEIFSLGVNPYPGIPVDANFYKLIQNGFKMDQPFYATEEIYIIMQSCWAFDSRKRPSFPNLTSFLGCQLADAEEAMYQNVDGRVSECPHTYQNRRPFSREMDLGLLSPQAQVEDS
Protocol: as §1

CAMKK1 = biological target: T16, CAMKK1 (Homo sapiens, UniProt Q8N5S9)
T16 construct: purchased Eurofins/DiscoverX KINOMEscan scanMAX
Protocol: as §1

BMPR1B = biological target: T17, BMPR1B (Homo sapiens, UniProt O00238)
T17 construct: purchased Eurofins/DiscoverX KINOMEscan scanMAX
Protocol: as §1

MET(Y1235D) = biological target: T18, MET(Y1235D) (Homo sapiens, UniProt P08581, Y1235D)
T18 construct: purchased Eurofins/DiscoverX KINOMEscan scanMAX
Protocol: as §1

PRKCD = biological target: T19, PRKCD (Homo sapiens, UniProt Q05655)
T19 construct: purchased Eurofins/DiscoverX KINOMEscan scanMAX
Protocol: as §1

SRPK2 = biological target: T20, SRPK2 (Homo sapiens, UniProt P78362)
T20 construct: purchased Eurofins/DiscoverX KINOMEscan scanMAX
Protocol: as §1

MAK = biological target: T21, MAK (Homo sapiens, UniProt P20794)
T21 construct: purchased Eurofins/DiscoverX KINOMEscan scanMAX
T21 sequence (P20794 whole entry): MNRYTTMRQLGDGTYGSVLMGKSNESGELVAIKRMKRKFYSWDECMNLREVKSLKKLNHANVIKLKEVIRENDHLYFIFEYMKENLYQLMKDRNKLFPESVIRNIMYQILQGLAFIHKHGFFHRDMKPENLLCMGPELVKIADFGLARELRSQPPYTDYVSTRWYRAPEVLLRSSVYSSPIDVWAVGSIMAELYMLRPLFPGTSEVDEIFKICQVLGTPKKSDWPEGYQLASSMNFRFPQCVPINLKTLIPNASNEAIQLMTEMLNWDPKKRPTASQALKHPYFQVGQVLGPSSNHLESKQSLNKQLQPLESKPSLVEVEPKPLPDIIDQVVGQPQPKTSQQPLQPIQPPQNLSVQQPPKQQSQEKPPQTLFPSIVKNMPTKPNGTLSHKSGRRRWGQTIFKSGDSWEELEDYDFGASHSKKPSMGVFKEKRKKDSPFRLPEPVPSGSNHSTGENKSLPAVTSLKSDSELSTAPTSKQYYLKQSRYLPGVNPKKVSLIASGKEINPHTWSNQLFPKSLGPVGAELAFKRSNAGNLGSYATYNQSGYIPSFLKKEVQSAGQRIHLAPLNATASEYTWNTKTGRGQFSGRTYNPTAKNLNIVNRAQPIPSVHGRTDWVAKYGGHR
Protocol: as §1

FGR = biological target: T22, FGR (Homo sapiens, UniProt P09769)
T22 construct: purchased Eurofins/DiscoverX KINOMEscan scanMAX
Protocol: as §1

WEE1 = biological target: T23, WEE1 (Homo sapiens, UniProt P30291)
T23 construct: DNA tag (qPCR barcode); purchased Eurofins/DiscoverX KINOMEscan scanMAX
Protocol: as §1

NEK3 = biological target: T24, NEK3 (Homo sapiens, UniProt P51956)
T24 construct: purchased Eurofins/DiscoverX KINOMEscan scanMAX
Protocol: as §1

WNK1 = biological target: T25, WNK1 (Homo sapiens, UniProt Q9H4A3)
T25 construct: DNA tag (qPCR barcode); purchased Eurofins/DiscoverX KINOMEscan scanMAX
Protocol: as §1

LIMK2 = biological target: T26, LIMK2 (Homo sapiens, UniProt P53671)
T26 construct: purchased Eurofins/DiscoverX KINOMEscan scanMAX
Protocol: as §1

BMPR1A = biological target: T27, BMPR1A (Homo sapiens, UniProt P36894)
T27 construct: purchased Eurofins/DiscoverX KINOMEscan scanMAX
Protocol: as §1

EPHA3 = biological target: T28, EPHA3 (Homo sapiens, UniProt P29320)
T28 construct: purchased Eurofins/DiscoverX KINOMEscan scanMAX
Protocol: as §1

MLK3 = biological target: T29, MLK3 (Homo sapiens, UniProt Q16584)
T29 construct: purchased Eurofins/DiscoverX KINOMEscan scanMAX
Protocol: as §1

PKMYT1 = biological target: T30, PKMYT1 (Homo sapiens, UniProt Q99640)
T30 construct: purchased Eurofins/DiscoverX KINOMEscan scanMAX
Protocol: as §1

MARK2 = biological target: T31, MARK2 (Homo sapiens, UniProt Q7KZI7)
T31 construct: purchased Eurofins/DiscoverX KINOMEscan scanMAX
Protocol: as §1

PIK3CA(E545K) = biological target: T32, PIK3CA(E545K) (Homo sapiens, UniProt P42336, E545K)
T32 construct: purchased Eurofins/DiscoverX KINOMEscan scanMAX
Protocol: as §1

FGFR3(G697C) = biological target: T33, FGFR3(G697C) (Homo sapiens, UniProt P22607, G697C)
T33 construct: purchased Eurofins/DiscoverX KINOMEscan scanMAX
Protocol: as §1

MAST1 = biological target: T34, MAST1 (Homo sapiens, UniProt Q9Y2H9)
T34 construct: purchased Eurofins/DiscoverX KINOMEscan scanMAX
Protocol: as §1

AMPK-alpha1 = biological target: T35, AMPK-alpha1 (Homo sapiens, UniProt Q13131)
T35 construct: purchased Eurofins/DiscoverX KINOMEscan scanMAX
T35 sequence (Q13131 whole entry): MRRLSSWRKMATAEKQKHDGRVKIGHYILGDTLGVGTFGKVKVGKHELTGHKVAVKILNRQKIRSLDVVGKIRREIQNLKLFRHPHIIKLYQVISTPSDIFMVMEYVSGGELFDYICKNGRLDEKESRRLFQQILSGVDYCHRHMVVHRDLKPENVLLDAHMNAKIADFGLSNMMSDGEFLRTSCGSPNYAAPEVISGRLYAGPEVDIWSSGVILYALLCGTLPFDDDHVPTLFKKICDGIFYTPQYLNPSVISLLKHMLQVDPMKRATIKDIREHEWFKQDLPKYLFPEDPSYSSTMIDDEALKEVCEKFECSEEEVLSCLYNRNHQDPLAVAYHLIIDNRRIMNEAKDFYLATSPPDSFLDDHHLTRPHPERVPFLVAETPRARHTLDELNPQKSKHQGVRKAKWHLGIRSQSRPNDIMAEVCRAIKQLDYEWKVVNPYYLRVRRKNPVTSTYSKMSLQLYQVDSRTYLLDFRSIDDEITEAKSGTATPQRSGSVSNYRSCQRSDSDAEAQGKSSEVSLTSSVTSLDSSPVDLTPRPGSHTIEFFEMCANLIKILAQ
Protocol: as §1

WNK2 = biological target: T36, WNK2 (Homo sapiens, UniProt Q9Y3S1)
T36 construct: DNA tag (qPCR barcode); purchased Eurofins/DiscoverX KINOMEscan scanMAX
Protocol: as §1

TNK2 = biological target: T37, TNK2 (Homo sapiens, UniProt Q07912)
T37 construct: purchased Eurofins/DiscoverX KINOMEscan scanMAX
Protocol: as §1

PRKR = biological target: T38, PRKR (Homo sapiens, UniProt P19525)
T38 construct: purchased Eurofins/DiscoverX KINOMEscan scanMAX
Protocol: as §1

[2] = biological target: T39, ABL1(T315I)-phosphorylated (Homo sapiens, UniProt P00519, T315I)
T39 construct: purchased Eurofins/DiscoverX KINOMEscan scanMAX
Protocol: as §1

[3] = biological target: T40, RSK4(Kin.Dom.1-N-terminal) (Homo sapiens, UniProt Q9UK32)
T40 construct: RSK4(Kin.Dom.1-N-terminal); purchased Eurofins/DiscoverX KINOMEscan scanMAX
Protocol: as §1

PLK4 = biological target: T41, PLK4 (Homo sapiens, UniProt O00444)
T41 construct: purchased Eurofins/DiscoverX KINOMEscan scanMAX
T41 sequence (O00444 whole entry): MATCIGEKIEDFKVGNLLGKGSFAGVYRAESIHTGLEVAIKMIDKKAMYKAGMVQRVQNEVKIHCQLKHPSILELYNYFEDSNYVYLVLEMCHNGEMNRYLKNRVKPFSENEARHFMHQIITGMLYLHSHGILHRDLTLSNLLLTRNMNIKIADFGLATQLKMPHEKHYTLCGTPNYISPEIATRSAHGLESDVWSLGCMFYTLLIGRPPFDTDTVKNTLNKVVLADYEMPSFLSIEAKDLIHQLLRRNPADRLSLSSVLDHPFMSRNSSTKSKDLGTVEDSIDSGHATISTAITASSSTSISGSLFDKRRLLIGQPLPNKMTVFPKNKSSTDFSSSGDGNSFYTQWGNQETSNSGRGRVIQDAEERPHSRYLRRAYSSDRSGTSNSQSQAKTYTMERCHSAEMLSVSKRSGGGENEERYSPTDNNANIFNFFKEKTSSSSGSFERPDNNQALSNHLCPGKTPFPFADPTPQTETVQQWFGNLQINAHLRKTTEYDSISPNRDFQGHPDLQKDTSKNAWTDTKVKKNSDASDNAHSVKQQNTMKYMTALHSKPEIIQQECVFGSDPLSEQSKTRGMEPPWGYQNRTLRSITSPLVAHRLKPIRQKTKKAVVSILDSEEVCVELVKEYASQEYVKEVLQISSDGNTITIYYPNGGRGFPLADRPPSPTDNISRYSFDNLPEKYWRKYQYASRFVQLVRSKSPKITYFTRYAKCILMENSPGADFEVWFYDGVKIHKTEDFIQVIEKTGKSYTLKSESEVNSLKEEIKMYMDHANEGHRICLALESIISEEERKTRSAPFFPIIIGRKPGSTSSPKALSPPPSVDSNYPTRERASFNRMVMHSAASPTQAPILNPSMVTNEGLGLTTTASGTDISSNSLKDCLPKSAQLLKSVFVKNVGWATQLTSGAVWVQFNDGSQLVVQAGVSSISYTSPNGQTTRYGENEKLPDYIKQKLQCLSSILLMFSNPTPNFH
Protocol: as §1

ERK1 = biological target: T42, ERK1 (Homo sapiens, UniProt P27361)
T42 construct: purchased Eurofins/DiscoverX KINOMEscan scanMAX
Protocol: as §1

T1 sequence (Q92772 whole entry): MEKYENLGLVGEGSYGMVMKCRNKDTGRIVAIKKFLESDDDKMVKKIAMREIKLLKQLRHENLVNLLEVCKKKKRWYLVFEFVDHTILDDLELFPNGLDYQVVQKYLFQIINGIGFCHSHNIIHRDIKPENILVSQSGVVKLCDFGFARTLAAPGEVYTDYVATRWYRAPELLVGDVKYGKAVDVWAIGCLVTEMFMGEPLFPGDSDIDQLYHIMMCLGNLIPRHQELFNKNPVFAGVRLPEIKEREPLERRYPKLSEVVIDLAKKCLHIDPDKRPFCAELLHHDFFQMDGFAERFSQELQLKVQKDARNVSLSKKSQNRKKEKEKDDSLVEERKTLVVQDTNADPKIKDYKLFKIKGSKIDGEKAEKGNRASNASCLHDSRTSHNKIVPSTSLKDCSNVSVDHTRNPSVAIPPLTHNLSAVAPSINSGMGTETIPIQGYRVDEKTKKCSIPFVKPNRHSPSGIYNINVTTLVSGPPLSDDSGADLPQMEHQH

## CN1CCN(C2CCC(n3cc(-c4ccc(Oc5ccccc5)cc4)c4c(N)ncnc43)CC2)CC1 (stereo not drawn) [A-419259]
CDKL2
  % Control: 70%
PLK1
  % Control: 100%
MARK4
  % Control: 97%
CAMK2G
  % Control: 100%
CAMK1D
  % Control: 97%
PHKG2
  % Control: 100%
ACVRL1
  % Control: 100%
CDK4-cyclinD3
  % Control: 81%
FLT1
  % Control: 29%
NIM1
  % Control: 100%
[1]
  % Control: 4.7%
p38-gamma
  % Control: 100%
LIMK1
  % Control: 31%
EPHA5
  % Control: 80%
FLT3-autoinhibited
  % Control: 3.4%
CAMKK1
  % Control: 100%
BMPR1B
  % Control: 92%
MET(Y1235D)
  % Control: 100%
PRKCD
  % Control: 89%
SRPK2
  % Control: 97%
MAK
  % Control: 100%
FGR
  % Control: 0.85%
WEE1
  % Control: 100%
NEK3
  % Control: 92%
WNK1
  % Control: 73%
LIMK2
  % Control: 91%
BMPR1A
  % Control: 100%
EPHA3
  % Control: 95%
MLK3
  % Control: 100%
PKMYT1
  % Control: 100%
MARK2
  % Control: 82%
PIK3CA(E545K)
  % Control: 95%
FGFR3(G697C)
  % Control: 27%
MAST1
  % Control: 64%
AMPK-alpha1
  % Control: 43%
WNK2
  % Control: 67%
TNK2
  % Control: 1.1%
PRKR
  % Control: 100%
[2]
  % Control: 83%
[3]
  % Control: 68%
PLK4
  % Control: 100%
ERK1
  % Control: 100%
